“Also recorded” adds a separate entry of the source.
Experiments:
[1] = system: Staphylococcus aureus (H-Heatley strain, NRRL B-314); assay: Antibacterial bioassay (Westhead); format: cell-based; conditions: S. aureus H-Heatley NRRL B-314 bioassay; free acid
From the text: The compounds of this invention are useful antibacterial agents. In this aspect, these compounds may be used in the same manner in which the parent antibiotic is used, as described in U.S. Pat. No. 3,923,823. A bioassay for the antibacterial activity of A-23187 has been described by J. E. Westhead in Antimicrobial Agents and Chemotherapy 11 (5), 916-918 (1977). The test organism for this bioassay is Staphylococcus aureus (H-Heatley strain, NRRL B-314).

[2] = Acute toxicity in mice, intraperitoneal; conditions: mouse, in vivo, ip, mg/kg × 1, free acid
Protocol: The compounds of the present invention are, in general, less toxic than the parent antibiotic. Table II summarizes the acute toxicities of representative compounds in mice, expressed as LD50, when the compounds are administered intraperitoneally.

[3] = target: cation transport ATPase in liver mitochondria; assay: In vitro inhibition of cation transport ATPase in liver mitochondria; format: biochemical
From the text: In yet another aspect, the compounds of this invention are active as inhibitors of the enzyme ATPase. ATPase, an alkali-metal-sensitive enzyme found in cell membranes, is involved in the energy necessary for active transport. "Active transport" refers to the energy-requiring series of operations whereby intracellular and extracellular fluids maintain their compositions. Inhibitors of ATPase reduce the energy required for active transport. Table III summarizes the results of in vitro tests measuring inhibition of cation transport ATPase in liver mitochondria [measured as half effective concentration (Ic50) in mcg/ml].

[4] = cited from earlier work

Compound | Bioassay [1] [µg/mL] | LD50 [2] [mg/kg] | half effective concentration (Ic50), ATPase induced by K^+ monazomycin [3] [µg/mL] | half effective concentration (Ic50), ATPase induced by CaCl2 [3] [µg/mL] | transport of Mg^2+ compared with Ca^2+ ([4]; Mg^2+ vs Ca^2+) | discrimination for divalent over monovalent cations ([4]; divalent vs monovalent cations)
CNc1ccc2oc(C[C@H]3O[C@@]4(CC[C@H]3C)O[C@H]([C@H](C)C(=O)c3cc(I)c(I)[nH]3)[C@H](C)C[C@H]4C)nc2c1C(=O)O [23,24-diiodo-A-23187, 5-(methylamino)-2-[[3β,9α,11β-trimethyl-8-[1α-methyl-2-oxo-2-(4,5-diiodo-1H-pyrrol-2-yl)ethyl]-1,7-dioxaspiro-[5.5]undec-2β-yl]methyl]-4-benzoxazolecarboxylic acid] | 560 | 100 | 0.8 |  |  | 
CNc1ccc2oc(C[C@H]3O[C@@]4(CC[C@H]3C)O[C@H]([C@H](C)C(=O)c3cc(I)c[nH]3)[C@H](C)C[C@H]4C)nc2c1C(=O)O [23-iodo-A-23187, 5-(methylamino)-2-[[3β,9α,11β-trimethyl-8-[1α-methyl-2-oxo-2-(4-iodo-1H-pyrrol-2-yl)ethyl]-1,7-dioxaspiro[5.5]undec-2β-yl]methyl]-4-benzoxazolecarboxylic acid] | 1331 | 25 | < 0.05 | 5 |  | 
CNc1ccc2oc(C[C@H]3O[C@@]4(CC[C@H]3C)O[C@H]([C@H](C)C(=O)c3ccc[nH]3)[C@H](C)C[C@H]4C)nc2c1C(=O)O [A-23187] | 1060 | 5.8 | 0.5 | 0.5 | transports Mg^2+ with a similar efficiency to Ca^2+ | substantially selective for the transport of divalent over monovalent cations; also recorded: not complete

Reference: patent US4228293A, “Iodo-A-23187 derivatives” (Eli Lilly and Company, priority 1978, dated 1980)
